According to patent EP2970215B1, “PYRROLIDINE DERIVATIVES, PHARMACEUTICAL COMPOSITIONS CONTAINING THEM, AND THEIR USE IN THERAPY” (AbbVie Deutschland GmbH & Co. KG, priority 2013, dated 2014):

target: T1, human GlyT1c transporter (Homo sapiens, UniProt P48067); assay: Radioligand binding assay using recombinant CHO cell membranes expressing human GlyT1; details: radioligand binding to human GlyT1c transporter-expressing membranes
T1 construct: expressed in transfected cells; host or cells: CHO cells (recombinant; line hGlyT1c_5_CHO is named for the uptake assay)
T1 sequence (P48067 1-706): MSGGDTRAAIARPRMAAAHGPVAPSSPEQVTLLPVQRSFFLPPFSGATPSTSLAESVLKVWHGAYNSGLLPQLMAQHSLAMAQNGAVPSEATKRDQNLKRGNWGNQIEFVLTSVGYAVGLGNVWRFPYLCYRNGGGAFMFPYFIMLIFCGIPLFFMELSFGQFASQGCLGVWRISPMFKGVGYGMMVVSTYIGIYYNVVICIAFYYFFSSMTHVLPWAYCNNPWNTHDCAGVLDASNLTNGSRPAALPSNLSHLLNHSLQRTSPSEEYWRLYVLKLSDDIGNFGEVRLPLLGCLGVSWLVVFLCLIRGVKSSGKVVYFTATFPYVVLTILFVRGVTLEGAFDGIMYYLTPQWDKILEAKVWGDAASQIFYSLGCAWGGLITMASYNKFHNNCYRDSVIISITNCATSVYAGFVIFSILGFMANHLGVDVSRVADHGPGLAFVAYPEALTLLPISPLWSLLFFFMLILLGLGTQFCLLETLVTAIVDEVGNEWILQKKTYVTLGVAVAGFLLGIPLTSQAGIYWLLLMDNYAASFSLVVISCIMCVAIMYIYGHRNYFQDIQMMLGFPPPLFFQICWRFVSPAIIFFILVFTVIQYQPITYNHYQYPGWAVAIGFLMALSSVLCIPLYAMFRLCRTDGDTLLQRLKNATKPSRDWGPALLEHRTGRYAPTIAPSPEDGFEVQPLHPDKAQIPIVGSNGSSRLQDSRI
Description: 2. Radioligand binding assays using recombinant CHO cell membranes expressing human GlyT1: […]

`Cn1cnc(S(=O)(=O)N2CC(Cc3cccc(Cl)c3)C(c3ccc(F)cc3)C2)c1` (stereo not drawn) [Example 182, 4-{[3-(3-chlorobenzyl)-4-(4-fluorophenyl)pyrrolidin-1-yl]sulfonyl}-1-methyl-1H-imidazole] and `Cn1cnc(S(=O)(=O)N2C[C@@H](Nc3cccc(Cl)c3)[C@H](c3ccc(F)cc3)C2)c1` [Example 325, (3S,4R)-N-(3-chlorophenyl)-4-(4-fluorophenyl)-1-[(1-methyl-1H-imidazol-4-yl)sulfonyl]pyrrolidin-3-amine] cannot be ordered by Ki: at most 0.1 µM for the first, at most 1 µM for the second.

`Cn1cnc(S(=O)(=O)N2CC(Cc3ccccc3Br)C(c3ccccc3Br)C2)c1` (stereo not drawn) [Example 205, 4-{[3-(2-bromobenzyl)-4-(2-bromophenyl)pyrrolidin-1-yl]sulfonyl}-1-methyl-1H-imidazole] and `Cn1cnc(S(=O)(=O)N2CC(Oc3ccccc3)C(c3ccccc3)C2)c1` (stereo not drawn) [Example 277, 1-methyl-4-[(3-phenoxy-4-phenylpyrrolidin-1-yl)sulfonyl]-1H-imidazole] cannot be ordered by Ki: at most 1 µM for the first, at most 10 µM for the second.

`Cn1cnc(S(=O)(=O)N2CC(Cc3cccc(Cl)c3)C(C3CC3)C2)c1` (stereo not drawn) [Example 309, 4-{[3-(3-chlorobenzyl)-4-cyclopropylpyrrolidin-1-yl]sulfonyl}-1-methyl-1H-imidazole] and `Cn1cnc(S(=O)(=O)N2C[C@H](Nc3cccc(Cl)c3)[C@@H](c3ccc(F)cc3)C2)c1` [Example 328, (3R,4S)-N-(3-chlorophenyl)-4-(4-fluorophenyl)-1-[(1-methyl-1H-imidazol-4-yl)sulfonyl]pyrrolidin-3-amine] cannot be ordered by Ki: at most 1 µM for the first, at most 0.1 µM for the second.

`Cn1cnc(S(=O)(=O)N2CC(Nc3ccc(F)c(C(F)F)c3)C(c3ccc(F)cc3)C2)c1` (stereo not drawn) [Example 310, N-[3-(difluoromethyl)-4-fluorophenyl]-4-(4-fluorophenyl)-1-[(1-methyl-1H-imidazol-4-yl)sulfonyl]pyrrolidin-3-amine] and `Cn1cnc(S(=O)(=O)N2C[C@@H](Nc3ccc(F)cc3)[C@H](c3ccc(F)cc3)C2)c1` [Example 324, (3S,4R)-N,4-bis(4-fluorophenyl)-1-[(1-methyl-1H-imidazol-4-yl)sulfonyl]pyrrolidin-3-amine] cannot be ordered by Ki: at most 0.1 µM for the first, at most 10 µM for the second.

`Cn1cnc(S(=O)(=O)N2C[C@@H](NCc3ccc(C(F)(F)F)cc3Cl)[C@H](c3ccc(F)cc3)C2)c1` [Example 321, (3S,4R)-N-[2-chloro-4-(trifluoromethyl)benzyl]-4-(4-fluorophenyl)-1-[(1-methyl-1H-imidazol-4-yl)sulfonyl]pyrrolidin-3-amine] and `Cn1cnc(S(=O)(=O)N2C[C@H](NCc3ccc(C(F)(F)F)cc3Cl)[C@@H](c3ccc(F)cc3)C2)c1` [Example 322, (3R,4S)-N-[2-chloro-4-(trifluoromethyl)benzyl]-4-(4-fluorophenyl)-1-[(1-methyl-1H-imidazol-4-yl)sulfonyl]pyrrolidin-3-amine] cannot be ordered by Ki: at most 1 µM for the first, at most 0.01 µM for the second.

For `Cn1cnc(S(=O)(=O)N2C[C@H](Nc3ccc(F)cc3)[C@@H](c3ccc(F)cc3)C2)c1` [Example 330, (3R,4S)-N,4-bis(4-fluorophenyl)-1-[(1-methyl-1H-imidazol-4-yl)sulfonyl]pyrrolidin-3-amine], the Ki was at most 0.1 µM.

same assay, conditions: radioligand binding, recombinant CHO cell membranes expressing human GlyT1c

`Cn1cnc(S(=O)(=O)N2C[C@@H](Nc3ccc(F)c(OC(F)(F)F)c3)[C@H](C3CCOC3)C2)c1` (relative stereo) [Example 831, trans -N-[4-fluoro-3-(trifluoromethoxy)phenyl]-1-[(1-methyl-1 H-imidazol-4-yl)sulfonyl] -4-(tetrahydrofuran-3-yl)pyrrolidin-3-amine] and `Cn1cnc(S(=O)(=O)N2C[C@@H](Nc3ccc(F)c(C(F)(F)F)c3)[C@H](C3CCOC3)C2)c1` (relative stereo) [Example 832, trans-N-[4-fluoro-3-(trifluoromethyl)phenyl]-1-[(1-methyl-1H-imidazol-4-yl)sulfonyl]-4-(tetrahydrofuran-3-yl)pyrrolidin-3-amine] cannot be ordered by Ki: at most 1 µM for the first, at most 1 µM for the second.

`Cn1cnc(S(=O)(=O)N2C[C@@H](Nc3ccc(Cl)c(C(F)(F)F)c3)[C@H](C3CCOC3)C2)c1` (relative stereo) [Example 833, trans-N-[4-chloro-3-(trifluoromethyl)phenyl]-1-[(1-methyl-1H-imidazol-4-yl)sulfonyl]-4-(tetrahydrofuran-3-yl)pyrrolidin-3-amine] and `Cn1cnc(S(=O)(=O)N2C[C@@H](Nc3cccc(OC(F)(F)F)c3)[C@H](C3CCOC3)C2)c1` (relative stereo) [Example 835, trans-1-[(1-methyl-1H-imidazol-4-yl)sulfonyl]-4-(tetrahydrofuran-3-yl)-N-[3-(trifluoromethoxy)phenyl]pyrrolidin-3-amine] cannot be ordered by Ki: at most 10 µM for the first, at most 1 µM for the second.

`Cn1cnc(S(=O)(=O)N2C[C@@H](Nc3cccc(OCC(F)(F)F)c3)[C@H](C3CCOC3)C2)c1` (relative stereo) [Example 834, trans-1-[(1-methyl-1H-imidazol-4-yl)sulfonyl]-4-(tetrahydrofuran-3-yl)-N-[3-(2,2,2-trifluoroethoxy)phenyl]pyrrolidin-3-amine] and `Cn1cnc(S(=O)(=O)N2C[C@@H](Nc3ccc(F)c(C(F)(F)F)c3)[C@H](C3CCCO3)C2)c1` (relative stereo) [Example 843, Trans-N-[4-fluoro-3-(trifluoromethyl)phenyl]-1-[(1-methyl-1H-imidazol-4-yl)sulfonyl]-4-(tetrahydrofuran-2-yl)pyrrolidin-3-amine] cannot be ordered by Ki: at most 1 µM for the first, at most 0.1 µM for the second.

`Cn1cc(S(=O)(=O)N2C[C@@H](Nc3cccc(OCC(F)(F)F)c3)[C@H](c3ccc(F)cc3)C2)nn1` (relative stereo) [Example 836, trans-4-(4-fluorophenyl)-1-[(1-methyl-1H-1,2,3-triazol-4-yl)sulfonyl]-N-[3-(2,2,2-trifluoroethoxy)phenyl]pyrrolidin-3-amine] and `Cn1cnc(S(=O)(=O)N2C[C@@H](Nc3ccc(F)c(C(F)(F)F)c3)[C@H](C3CCCCO3)C2)c1` (relative stereo) [Example 846, Trans-N-[4-fluoro-3-(trifluoromethyl)phenyl]-1-[(1-methyl-1H-imidazol-4-yl)sulfonyl]-4-(tetrahydro-2H-pyran-2-yl)pyrrolidin-3-amine] cannot be ordered by Ki: at most 0.01 µM for the first, at most 0.1 µM for the second.

`Cn1cnc(S(=O)(=O)N2C[C@@H](Nc3cc(C(F)(F)F)c(Cl)cn3)[C@H](C3CCCO3)C2)c1` (relative stereo) [Example 844, 5-Chloro-N-[trans-1-[(1-methyl-1H-imidazol-4-yl)sulfonyl]-4-(tetrahydrofuran-2-yl)pyrrolidin-3-yl]-4-(trifluoromethyl)pyridin-2-amine] and `Cn1cnc(S(=O)(=O)N2C[C@@H](Nc3cc(C(F)(F)F)c(Cl)cn3)[C@H](C3CCCCO3)C2)c1` (relative stereo) [Example 848, 5-Chloro-N-[trans-1-[(1-methyl-1H-imidazol-4-yl)sulfonyl]-4-(tetrahydro-2H-pyran-2-yl)pyrrolidin-3-yl]-4-(trifluoromethyl)pyridin-2-amine] cannot be ordered by Ki: at most 1 µM for the first, at most 1 µM for the second.

`Cc1cc(N[C@@H]2CN(S(=O)(=O)c3cn(C)cn3)C[C@H]2C2CCCO2)ccc1F` (relative stereo) [Example 845, Trans-N-(4-fluoro-3-methylphenyl)-1-[(1-methyl-1H-imidazol-4-yl)sulfonyl]-4-(tetrahydrofuran-2-yl)pyrrolidin-3-amine] and `Cc1cc(N[C@@H]2CN(S(=O)(=O)c3cn(C)cn3)C[C@H]2C2CCCCO2)ccc1F` (relative stereo) [Example 847, Trans-N-(4-fluoro-3-methylphenyl)-1-[(1-methyl-1H-imidazol-4-yl)sulfonyl]-4-(tetrahydro-2H-pyran-2-yl)pyrrolidin-3-amine] cannot be ordered by Ki: at most 1 µM for the first, at most 0.1 µM for the second.

`Cn1cnc(S(=O)(=O)N2C[C@@H](Nc3cccc(Cl)c3)[C@H](C3CCCCO3)C2)c1` (relative stereo) [Example 849, Trans-N-(3-chlorophenyl)-1-[(1-methyl-1H-imidazol-4-yl)sulfonyl]-4-(tetrahydro-2H-pyran-2-yl)pyrrolidin-3-amine] and `Cn1cnc(S(=O)(=O)N2C[C@@H](Nc3cccc(Cl)c3)[C@H](C3CCCO3)C2)c1` (relative stereo) [Example 850, Trans-N-(3-chlorophenyl)-1 - [(1-methyl-1H-imidazol-4-yl)sulfonyl] -4-(tetrahydrofuran-2-yl)pyrrolidin-3-amine] cannot be ordered by Ki: at most 0.1 µM for the first, at most 1 µM for the second.

`Cc1cc(N[C@@H]2CN(S(=O)(=O)c3cn(C)cn3)C[C@H]2C2CCCO2)ncc1F` (relative stereo) [Example 851, 5-Fluoro-4-methyl-N-[trans-1-[(1-methyl-1H-imidazol-4-yl)sulfonyl]-4-(tetrahydrofuran-2-yl)pyrrolidin-3-yl]pyridin-2-amine] and `Cc1cc(N[C@@H]2CN(S(=O)(=O)c3cn(C)cn3)C[C@H]2C2CCCCO2)ncc1F` (relative stereo) [Example 852, 5-Fluoro-4-methyl-N-[trans-1-[(1-methyl-1H-imidazol-4-yl)sulfonyl]-4-(tetrahydro-2H-pyran-2-yl)pyrrolidin-3-yl]pyridin-2-amine] cannot be ordered by Ki: at most 10 µM for the first, at most 1 µM for the second.
